# Reference: patent publication US20110045459A1, “Molecular determinants of EGFR kinase inhibitor response in glioblastoma” (priority 2005, published 2011)
# Entries after “also recorded” stand apart in the source; their conditions may differ.
# Tested on: U87MG glioblastoma cells
# Assay: Relative sensitivity to erlotinib of U87MG lines expressing PTEN, EGFR, EGFRvIII (crystal violet)
# Assay type: cell-based
# Conditions: erlotinib 0-10 μM, 10-14 days, U87-PTEN
# Procedure: FIG. 3. […] 1000 cells/well of each cell line was seeded into 96-well plates in 8 replicates. […] Experiments were repeated 3 times in 8 replicates for each condition.
# Following retroviral transduction we selected the following stable cell lines: U87-PTEN, U87-EGFR, U87-PTEN-EGFR, U87-EGFRvIII and U87-PTEN-EGFRvIII.
# Functional analysis of effect of EGFR, EGFRvIII and PTEN coexpression: Human EGFR and EGFRvIII cDNAs were retrovirally introduced into U87MG and U87MG-PTEN over-expressing cells and selected for antibiotic resistance. Multiple stable clones were analyzed for the expression of PTEN, EGFR or EGFRvIII by immunoblot. […] The background reading of the wells containing medium alone was subtracted from experimental wells.
smiles,measurement,value
C#Cc1cccc(Nc2ncnc3cc(OCCOC)c(OCCOC)cc23)c1 [Erlotinib],sensitization of glioblastoma cells to erlotinib,"EGFRvIII and PTEN co-expression sensitizes glioblastoma cells to erlotinib; also recorded: EGFRvIII sensitized glioblastoma cells to erlotinib, but only when PTEN was co-expressed"
